Data reported in patent US10633338B2, “Binding Function 3 (BF3) site compounds as therapeutics and methods for their use” (THE UNIVERSITY OF BRITISH COLUMBIA, priority 2014, dated 2020).
Read-outs that look alike come from different tables or passages of the source.

Legend:
PSA = experiment: Prostate Surface Antigen (PSA) assay, PSA excreted into the media; format: cell-based, human
Experimental: The evaluation of PSA excreted into the media was performed in parallel to the eGFP assay using the same plates (see above description). After the cells were incubated for 3 days 150 μl of the media was taken from each well, and added to 150 μl of PBS.

androgen receptor (AR) = biological target: T1, androgen receptor (AR) (Homo sapiens, UniProt P10275, T878A); experiment: eGFP cellular AR transcription assay; format: cell-based
T1 construct: stably transfected eGFP-expressing LNCaP human prostate cancer cells (LN-ARR2PB-eGFP) containing an androgen responsive probasin-derived promoter; endogenous in cells; host or cells: LNCaP (LN-ARR2PB-eGFP)
T1 sequence (P10275 1-920 T878A): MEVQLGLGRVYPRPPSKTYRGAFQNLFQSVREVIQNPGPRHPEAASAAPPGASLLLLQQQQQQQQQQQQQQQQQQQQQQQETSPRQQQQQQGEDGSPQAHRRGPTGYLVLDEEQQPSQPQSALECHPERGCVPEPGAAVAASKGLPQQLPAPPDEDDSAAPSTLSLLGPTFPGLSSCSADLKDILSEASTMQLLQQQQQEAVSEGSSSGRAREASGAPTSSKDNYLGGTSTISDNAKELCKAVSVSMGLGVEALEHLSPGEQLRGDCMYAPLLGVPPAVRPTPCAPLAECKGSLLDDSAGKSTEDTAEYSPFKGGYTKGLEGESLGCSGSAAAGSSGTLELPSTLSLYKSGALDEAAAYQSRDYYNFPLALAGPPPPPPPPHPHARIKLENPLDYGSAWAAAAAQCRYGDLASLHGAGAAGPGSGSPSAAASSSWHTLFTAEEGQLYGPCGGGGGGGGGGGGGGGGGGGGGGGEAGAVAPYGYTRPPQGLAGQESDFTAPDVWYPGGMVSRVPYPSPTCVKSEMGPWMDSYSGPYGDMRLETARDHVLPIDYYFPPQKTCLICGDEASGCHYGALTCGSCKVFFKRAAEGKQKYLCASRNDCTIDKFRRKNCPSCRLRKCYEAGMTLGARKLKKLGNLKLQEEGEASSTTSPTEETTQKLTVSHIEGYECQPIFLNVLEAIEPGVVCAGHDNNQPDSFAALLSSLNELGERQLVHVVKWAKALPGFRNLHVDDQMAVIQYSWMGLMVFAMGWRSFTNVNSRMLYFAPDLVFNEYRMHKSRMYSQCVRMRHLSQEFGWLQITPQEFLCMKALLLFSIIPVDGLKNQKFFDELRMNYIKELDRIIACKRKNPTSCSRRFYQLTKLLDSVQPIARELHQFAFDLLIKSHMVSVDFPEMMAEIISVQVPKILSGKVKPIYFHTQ
Experimental: After 5 days, the cells were plated into a 96-well plate (35,000 cells/well) with 0.1 nM of the synthetic androgen R1881 and increasing concentrations (0-100 μM) of compound.
After 5 days, the cells were plated into a 96-well plate (35,000 cells/well) with 0.1 nM R1881 and increasing concentrations (0-100 μM) of compound.
In this assay, the expression of eGFP is under the control of an androgen responsive probasin-derived promoter and can quantify AR transcriptional activity.

[1] = PSA excreted into media, same plates as eGFP assay, 3 days incubation
[2] = LN-ARR2PBeGFP LNCaP cells, 0.1 nM R1881, 3 days incubation
[3] = Homo sapiens, 72 h, PSA excreted into media, same plates as eGFP assay, 3 days incubation, read-out: PSA IC50
[4] = LN-ARR2PBeGFP LNCaP cells, 0.1 nM R1881, 3 days incubation, read-out: eGFP IC50
[5] = Homo sapiens, 72 h, same plates as eGFP assay, media after 3 days, read-out: IC50 (PSA)
[6] = same plates as eGFP assay, media after 3 days
[7] = LN-ARR2PB-eGFP LNCaP cells, 0.1 nM R1881, 3 days, 0-100 μM compound, read-out: IC50 (eGFP)
[8] = PSA excreted into media, same plates as eGFP assay, 3 days incubation, read-out: PSA IC50

| IC50 (PSA; [3]) [nM] | IC50 (androgen receptor (AR); [4]) [nM] | SMILES | other results |
| --- | --- | --- | --- |
| – | – | Fc1cc2c(-c3ccc4c(Cl)cccc4n3)c[nH]c2c(F)c1F [Compound 13750] | PSA IC50 (PSA; [1]): Inactive; eGFP IC50 (androgen receptor (AR); [2]): Inactive |
| 544 | 549 | Fc1ccc(Cl)c2[nH]cc(-c3ccc4ccccc4n3)c12 [Compound 13639] | – |
| 82 | 100 | Fc1ccc2c(-c3ccc4cccnc4c3)c[nH]c2c1 [Compound 13764] | IC50 (PSA; [5]): 82 nM |
| – | – | COc1ccc(Br)cc1-c1c[nH]c2ccccc12 [13 638] | IC50 (PSA) (PSA; [6]): IC50 (PSA) = Inactive; IC50 (eGFP) (androgen receptor (AR); LN-ARR2PB-eGFP LNCaP cells, 0.1 nM R1881, 3 days, 0-100 μM compound): IC50 (eGFP) = Inactive |
| 1540 | 2500 | CC1(C)c2ccccc2NC1c1c[nH]c2ccc(Br)cc12 (stereo not drawn) [Compound 13510] | – |
| 6760 | 9300 | COc1ccc(/N=C/c2c[nH]c3ccccc23)cc1 [Compound 13300] | – |
| 182 | – | Cc1cccc2c(-c3ccc4c(C(F)(F)F)cccc4n3)c[nH]c12 [Compound 13602] | – |
| – | – | O=[N+]([O-])c1cccc2nc(-c3c[nH]c4c(Cl)cc(F)cc34)ccc12 [Compound 13667] | PSA IC50 (PSA; [1]): Inactive; eGFP IC50 (androgen receptor (AR); [2]): Inactive |
| – | – | Fc1ccc2c(-c3ccc4c(C(F)(F)F)cccc4n3)c[nH]c2c1F [Compound 13617] | PSA IC50 (PSA; [1]): Inactive; eGFP IC50 (androgen receptor (AR); [2]): Inactive |
| – | – | Cc1cccc2c(-c3ccc(-c4ccccc4)cc3)c[nH]c12 [13 733] | IC50 (PSA; [5]): 919 nM; IC50 (androgen receptor (AR); [7]): 3810 nM |
| – | – | Cc1cc(F)cc2c(-c3cnc4cccc(Cl)c4n3)c[nH]c12 [Compound 13705] | PSA IC50 (PSA; [1]): Inactive; eGFP IC50 (androgen receptor (AR); [2]): Inactive |
| – | – | c1ccc(-c2nc3ccccc3[nH]2)cc1 [13 686] | IC50 (PSA) (PSA; [6]): IC50 (PSA) = Inactive |
| 940 | 500 | CC1(C)C(c2c[nH]c3c(O)cccc23)=Nc2ccccc21 [Compound 13541] | – |
| – | – | Oc1cc2ccccc2cc1-c1nc2ccccc2[nH]1 [Compound 13687] | PSA IC50 (PSA; [1]): Inactive; eGFP IC50 (androgen receptor (AR); [2]): Inactive |
| – | – | c1ccc2nc(-c3c[nH]c4cnccc34)ccc2c1 [13 583] | IC50 (PSA; [5]): 930 nM; IC50 (androgen receptor (AR); [7]): 1100 nM |
| 1160 | – | Clc1cc(Cl)c2[nH]cc(-c3ccc4ccccc4n3)c2c1 [Compound 13627] | – |
| 2460 | 1700 | Fc1ccc(Nc2nc3ccccc3[nH]2)cc1Cl [Compound 13145] | – |
| – | 900 | Cc1ccccc1CSc1c(C)[nH]c2ccccc12 [Compound 13412] | IC50 (PSA; [8]): 1230 nM |
| 670 | 590 | COc1cccc2c(-c3cc(C)c4ccccc4n3)c[nH]c12 [Compound 13554] | – |
| 6610 | 1400 | c1ccc2ncc(-c3n[nH]c4ccccc34)cc2c1 [Compound 13684] | – |

| IC50 (PSA; [3]) [nM] | IC50 (androgen receptor (AR); [4]) [nM] | SMILES | other results |
| --- | --- | --- | --- |
| 4240 | 3210 | Cc1ccc2[nH]cc(C3Nc4ccccc4C34CCCCC4)c2c1 (stereo not drawn) [Compound 13548] | – |
| – | 73 | Cc1cccc2c(-c3cnc4ccccc4n3)c[nH]c12 [Compound 13699] | IC50 (PSA; [8]): 73 nM |
| 110 | – | Cc1cccc2c(-c3ccc4cccc(Br)c4n3)c[nH]c12 [Compound 13677] | – |
| – | – | Cc1cc(F)cc2cc[nH]c12 [Compound 13722] | PSA IC50 (PSA; [1]): Inactive; eGFP IC50 (androgen receptor (AR); [2]): Inactive |
| 198 | 149 | N#Cc1cc(F)cc2c(-c3ccc4ccc(F)cc4n3)c[nH]c12 [Compound 13730] | – |
| – | – | Cc1ccc2[nH]cc(C3Nc4ccccc4C34CCCCC4)c2c1 (stereo not drawn) [13 548] | IC50 (PSA; [5]): 4240 nM; IC50 (androgen receptor (AR); [7]): 3200 nM |
| 255 | 304 | CNC(=O)c1cccc2nc(-c3c[nH]c4c(C#N)cc(F)cc34)ccc12 [Compound 13731] | – |
| 98 | 160 | Fc1cc(F)c2[nH]cc(-c3ccc4c(Cl)cccc4n3)c2c1F [Compound 13753] | – |
| 1140 | 1130 | Oc1cccc2c(C3Nc4ccccc4C34CCCCC4)c[nH]c12 (stereo not drawn) [Compound 13552] | – |
| – | – | FC(F)(F)c1ccc(-c2c[nH]c3ccccc23)cc1 [13 743] | IC50 (PSA; [5]): 390 nM; IC50 (androgen receptor (AR); [7]): 380 nM |
| 310 | 400 | NC(=O)c1ccccc1/N=C/c1c[nH]c2ccccc12 [Compound 13427] | – |
| – | – | Cc1cccc2c(-c3cnc4ccccc4c3)c[nH]c12 [Compound 13654] | IC50 (PSA; [8]): 160 nM |
| 240 | 480 | c1ccc2c(c1)C[C@H](c1c[nH]c3ccccc13)N2 [Compound 13163-B] | – |
| 1010 | 2200 | C(=C\c1c[nH]c2ccccc12)/c1ccccc1 [Compound 13235] | – |
| – | – | Brc1ccc(-c2c[nH]c3ncccc23)cc1 [13 716] | IC50 (PSA; [5]): 58 nM; IC50 (androgen receptor (AR); [7]): 67 nM |
| 730 | 800 | N#C/C(=C\c1ccc(C(F)(F)F)cc1)c1c[nH]c2ccccc12 [Compound 13434] | – |
| – | – | CNC(=O)c1cccc2nc(-c3c[nH]c4c(F)c(F)c(F)cc34)ccc12 [Compound 13754] | IC50 (PSA; [8]): 51 nM |
| 121 | – | Cc1cccc2c(-c3ccc4ccc(F)cc4n3)c[nH]c12 [Compound 13611] | – |
| 13 | – | Fc1cc(F)c2[nH]cc(-c3ccc4ccccc4n3)c2c1 [Compound 13610] | – |
| 130 | – | Cc1cccc2c(-c3ccc4cccc(Cl)c4n3)c[nH]c12 [Compound 13593] | – |

| IC50 (PSA; [3]) [nM] | IC50 (androgen receptor (AR); [4]) [nM] | SMILES | other results |
| --- | --- | --- | --- |
| 430 | – | Cc1ccc(/N=C/c2c[nH]c3ccccc23)cc1 [Compound 13247] | – |
| 42 | – | Fc1cc(Cl)c2[nH]cc(-c3ccc4ccccc4n3)c2c1 [Compound 13624] | – |
| 1430 | – | Cc1cccc2c(-c3ccc4ccc(Cl)cc4n3)c[nH]c12 [Compound 13606] | – |
| 156 | – | Cc1cccc2c(-c3cnc4ccccc4c3)c[nH]c12 [Compound 13643] | – |
| 87 | – | Cc1c(F)ccc2c(-c3ccc4ccccc4n3)c[nH]c12 [Compound 13607] | – |
| – | – | Cc1cccc2c(-c3ccc4cccc(Br)c4n3)c[nH]c12 [13 677] | IC50 (PSA; [5]): 110 nM |
| 165 | – | Cc1cc(F)cc2c(-c3ccc4ccccc4n3)c[nH]c12 [Compound 13601] | – |
| 403 | – | Fc1cc(Cl)cc2c(-c3ccc4ccccc4n3)c[nH]c12 [Compound 13641] | – |
| 383 | – | Fc1cc2c(-c3ccc4c(C(F)(F)F)cccc4n3)c[nH]c2c(F)c1F [Compound 13761] | – |
| 1230 | – | Cc1cc(Cl)c2[nH]cc(-c3ccc4ccccc4n3)c2c1 [Compound 13625] | – |
| 82 | – | Cc1cccc2c(-c3ccc4cccc(F)c4n3)c[nH]c12 [Compound 13692] | – |
| 130 | – | Fc1ccc2c(-c3ccc4ccccc4n3)c[nH]c2c1F [Compound 13618] | – |
| – | – | CC1(C)c2cc(Br)ccc2NC1c1c[nH]c2cc(O)ccc12 (stereo not drawn) [13 542] | IC50 (androgen receptor (AR); [7]): 5700 nM |
| – | – | Cc1cccc2c(-c3ccc4ccccc4n3)c[nH]c12 [13 566] | IC50 (PSA; Homo sapiens, 72 h, read-out: IC50 (PSA)): 56 nM |
| – | – | c1ccc(-c2nc3ccccc3[nH]2)cc1 [Compound 13686] | PSA IC50 (PSA; [1]): Inactive |
| – | – | Cn1cc(-c2ccc3ccccc3n2)c2ccccc21 [13 571] | IC50 (androgen receptor (AR); [7]): 1100 nM |
| 25 | – | Fc1ccc2c(-c3ccc4ccccc4n3)c[nH]c2c1Cl [Compound 13642] | – |
| 132 | – | CNC(=O)c1cccc2nc(-c3c[nH]c4c(C)cccc34)ccc12 [Compound 13597] | – |

| SMILES | IC50 (PSA; [3]) [nM] | IC50 (androgen receptor (AR); [4]) [nM] | other results |
| --- | --- | --- | --- |
| CC1(C)c2ccccc2NC1c1c[nH]c2ccc(Cl)cc12 (stereo not drawn) [Compound 13522] | 2190 | 3400 | – |
| Brc1cccc2c(-c3ccc4ccccc4n3)c[nH]c12 [Compound 13621] | 8 | 20 | – |
| Clc1cccc2c(-c3ccc4ccccc4n3)c[nH]c12 [Compound 13622] | 75 | – | – |
| Cc1cccc2c(-c3ccc4ccccc4n3)c[nH]c12 [Compound 13566] | 11 | – | – |
